According to patent US6110907A, “Synthesis of platinum complexes and uses thereof” (Dalian Institute of Chemical Physics, Chinese Academy of …, priority 1998, dated 2000):
Like-named read-outs stand apart in the source and are kept apart here.

Legend:
[1] = system: kidney; assay: 5-Day Parenteral Acute Toxicity Trial, kidney histopathology; assay type: in vivo, ICR mice; settings: 1/12 LD10/day for 5 days, i.p., per animal
Method: (§1) Conditions: Temperature: 22° C.±3° C.; Relative humidity: 30-70 T; Light: 12:12. Animals were housed in twos or threes depending on group numbers.
(§2) Histopathology of liver and kidney were examined for each animal.

[2] = system: liver; assay: 5-Day Parenteral Acute Toxicity Trial, liver histopathology; assay type: in vivo, ICR mice; settings: 1/12 LD10/day for 5 days, i.p., per animal
Method: as §1, §2

[3] = background statement; cited from earlier work
[4] = cited from earlier work
[5] = system: CC3; assay: In vitro antitumor activity, MTT assay, CC3; assay type: cell-based, human; settings: CC3, 48 hours
Method: (§3) Drugs: Drugs to be tested were dissolved in complete medium at twice the highest concentration to be used, followed by filter (0.22 μm) sterilization. A series of log dilutions were made of each drug solution using complete medium and stored at r.t. until use.
(§4) Cells: L1210, H-522 (human lung), HT-29 (human colon), Hela, CC3 (human cervix) were obtained from the American Type Culture Collection (ATCC). CNE-1 and CNE-2 (human nasopharyngeal) were obtained from The Hong Kong Cancer Institute, The Chinese University of Hong Kong.
(§5) In vitro drug exposure: Trypsinised cells were adjusted to a concentration of 3×10^4 cells/ml in complete medium and for each drug to be tested, 0.1 ml of the cell suspension was added to each of 48 wells of a 96-well microculture plate. The plate was then incubated at standard conditions for 24 hours in order to allow the cells to attach to the bottom of the well. To each well of the control cultures, 0.1 ml of complete medium was added. […]
(§6) MTT assay: The MTT (tetrazolium) assay was used to determine the growth-inhibitory effects of different drugs. […] The amount of reduced MTT was determined by spectrophotometric means (540 nm).
(§7) Data analysis: The mean OD for all 48 control wells was determined. For each concentration of each drug, the mean OD of the 6 wells was determined and the "Percent of Control" values were determined and plotted. […]

[6] = system: CNE-1; assay: In vitro antitumor activity, MTT assay, CNE-1; assay type: cell-based, human; settings: CNE-1, 48 hours
Method: as §3, §4, §5, §6, §7

[7] = system: CNE-2; assay: In vitro antitumor activity, MTT assay, CNE-2; assay type: cell-based, human; settings: CNE-2, 48 hours
Method: as §3, §4, §5, §6, §7

[8] = system: H522; assay: In vitro antitumor activity, MTT assay, H522; assay type: cell-based, human; settings: H522, 48 hours
Method: as §3, §4, §5, §6, §7

[9] = system: Hela; assay: In vitro antitumor activity, MTT assay, Hela; assay type: cell-based, human; settings: 48 hours
Method: as §3, §4, §5, §6, §7

[10] = system: HT29; assay: In vitro antitumor activity, MTT assay, HT-29; assay type: cell-based, human; settings: HT29, 48 hours
Method: as §3, §4, §5, §6, §7

[11] = system: L1210; assay: In vitro antitumor activity, MTT assay, L1210; assay type: cell-based, mouse; settings: L1210, 48 hours
Method: as §3, §4, §5, §6, §7

[12] = system: ICR mice; assay: Toxicity testing, LD50 (Example 14); assay type: in vivo; settings: in 0.9% NaCl, observed for 6 days
Method: The toxicity tests used ICR mice (30-40 g), each group containing 12-13 mice. […] The test and control compounds were dissolved in 0.9% NaCl to an appropriate concentration.

[13] = system: ICR mice; assay: In vivo toxicity, LD50 (second series); settings: male, intraperitoneal
Method: Animals: ICR mice, male, 30 g, 10 animals per test/control group.
Dose: Test/control drug were dissolved in normal saline. Four doses, each increasing by 10-20% were injected intraperitoneally into mice. 10 mice were used for each dose point.

Row | Compound | KIDNEY Normal ([1]; female) | KIDNEY Normal ([1]; male) | LIVER Normal ([2]; female) | LIVER Normal ([2]; male) | LD50 [3] | IC50 [5] | IC50 [6] | IC50 [7] | IC50 [8] | IC50 [9] | IC50 [10] | IC50 [11] | also measured
1 | C[C@@]12C(=O)OC(=O)[C@]1(C)[C@H]1CC[C@@H]2O1 [Cantharidin, cantharidin] | √ | √ | √ | √ | 1 mg/kg | – | – | – | – | – | – | – | side effects ([4]; background statement): nausea and vomiting, dysphagia, hematemesis, gross hematuria and dysuria; side effects ([4]; background statement, listed as cantharidin): severe side-effects such as nausea, vomiting and diarrhoea
2 | N.N.[Cl][Pt][Cl] [Cisplatin, cisplatin] | – | – | – | – | – | 6.25 µM | 6.36 µM | 6.04 µM | 12.1 µM | 8.56 µM | 38.3 µM | 1.63 µM | –
3 | N.N.O=C([O-])C1(C(=O)[O-])CCC1.[Pt+2] [Carboplatin, carboplatin] | √ | √ | √ | √ | – | 205 µM | 174 µM | 126 µM | 287 µM | 244 µM | 734 µM | 48.8 µM | LD50 [12]: 190 mg/kg; LD50 [13]: 203.20 mg/kg; Solubility in water (pH 6): 10000 µg/mL; Solubility (water): ~10000 µg/mL; side effects ([4]; in vivo): strongly irritates the gastrointestinal tract
4 | O=C(O)C1C2CCC(O2)C1C(=O)O (centres unmarked) [corresponding dicarboxylic acid] | – | – | – | – | 14 mg/kg | – | – | – | – | – | – | – | –
5 | O=C1OC(=O)C2C3CCC(O3)C12 (centres unmarked) [demethyl cantharidin] | – | – | – | – | 4 mg/kg | – | – | – | – | – | – | – | –
